From PubChem BioAssay AID2060912 (Molecular Pharmacology Branch, DTP, NCI, 2025)

System: HUVEC/MSC spheroids viability
Assay: Human HUVEC/MSC cell line growth inhibition [KRAS2];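 for viability, T/C: percent of DMSO vehicle control luminescence so 100% = untreated viability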
Settings: for IC50: curve of first compound; for viability, T/C: stronger effect = lower value
Outline: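 Concentration ranges start near each agent's clinical Cmax, or at 10 microM if none is established, and fall by half-log increments. These ranges are tested as single agents and combinations on endothelial/mesenchymal stem cell spheroids lacking tumour cells.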

CC1(C)CCC(CN2CCN(c3ccc(C(=O)NS(=O)(=O)c4ccc(NCC5CCOCC5)c([N+](=O)[O-])c4)c(Oc4cnc5[nH]ccc5c4)c3)CC2)=C(c2ccc(Cl)cc2)C1 + COc1cc2nc(C)nc(NC(C)c3cc(N)cc(C(F)(F)F)c3)c2cc1OC1CCOC1
IC50 (second compound 0.0316 µM): 5.09 µM | IC50 (second compound 0.1 µM): 4.59 µM | IC50 (second compound 0.316 µM): 4.78 µM | IC50 (second compound 1 µM): 5.01 µM | IC50 (second compound 3.16 µM): 5.49 µM | IC50 (second compound 10 µM): 4.61 µM | viability, T/C (second compound 0.0316 µM, first compound 0.0316 µM): 105% | viability, T/C (second compound 0.0316 µM, first compound 0.1 µM): 116% | viability, T/C (second compound 0.0316 µM, first compound 0.316 µM): 105% | viability, T/C (second compound 0.0316 µM, first compound 1 µM): 96.6% | viability, T/C (second compound 0.0316 µM, first compound 3.16 µM): 82.3% | viability, T/C (second compound 0.0316 µM, first compound 10 µM): 6.99% | viability, T/C (second compound 0.1 µM, first compound 0.0316 µM): 98.5% | viability, T/C (second compound 0.1 µM, first compound 0.1 µM): 94.6% | viability, T/C (second compound 0.1 µM, first compound 0.316 µM): 102% | viability, T/C (second compound 0.1 µM, first compound 1 µM): 100% | viability, T/C (second compound 0.1 µM, first compound 3.16 µM): 72.8% | viability, T/C (second compound 0.1 µM, first compound 10 µM): 2.34% | viability, T/C (second compound 0.316 µM, first compound 0.0316 µM): 82.7% | viability, T/C (second compound 0.316 µM, first compound 0.1 µM): 104% | viability, T/C (second compound 0.316 µM, first compound 0.316 µM): 76.6% | viability, T/C (second compound 0.316 µM, first compound 1 µM): 81.5% | viability, T/C (second compound 0.316 µM, first compound 3.16 µM): 76.3% | viability, T/C (second compound 0.316 µM, first compound 10 µM): 5.03% | viability, T/C (second compound 1 µM, first compound 0.0316 µM): 95.7% | viability, T/C (second compound 1 µM, first compound 0.1 µM): 79.5% | viability, T/C (second compound 1 µM, first compound 0.316 µM): 84% | viability, T/C (second compound 1 µM, first compound 1 µM): 92% | viability, T/C (second compound 1 µM, first compound 3.16 µM): 81% | viability, T/C (second compound 1 µM, first compound 10 µM): 3.29% | viability, T/C (second compound 3.16 µM, first compound 0.0316 µM): 73.1% | viability, T/C (second compound 3.16 µM, first compound 0.1 µM): 105% | viability, T/C (second compound 3.16 µM, first compound 0.316 µM): 110% | viability, T/C (second compound 3.16 µM, first compound 1 µM): 95.2% | viability, T/C (second compound 3.16 µM, first compound 3.16 µM): 87.7% | viability, T/C (second compound 3.16 µM, first compound 10 µM): 8.97% | viability, T/C (second compound 10 µM, first compound 0.0316 µM): 61.3% | viability, T/C (second compound 10 µM, first compound 0.1 µM): 70.5% | viability, T/C (second compound 10 µM, first compound 0.316 µM): 78.9% | viability, T/C (second compound 10 µM, first compound 1 µM): 68.2% | viability, T/C (second compound 10 µM, first compound 3.16 µM): 80.6% | viability, T/C (second compound 10 µM, first compound 10 µM): 5.02%

CCN1CCN(Cc2ccc(Nc3ncc(F)c(-c4cc(F)c5nc(C)n(C(C)C)c5c4)n3)nc2)CC1 + C=CC(=O)N1CCN(c2nc(OCC3CCCN3C)nc3c2CCN(c2cccc4cccc(C)c24)C3)CC1CC#N
IC50 (second compound 0.00949 µM): > 1 µM | IC50 (second compound 0.03 µM): > 1 µM | IC50 (second compound 0.0949 µM): > 1 µM | IC50 (second compound 0.3 µM): > 1 µM | IC50 (second compound 0.949 µM): > 1 µM | IC50 (second compound 3 µM): > 1 µM | viability, T/C (second compound 0.00949 µM, first compound 0.00316 µM): 98.1% | viability, T/C (second compound 0.00949 µM, first compound 0.01 µM): 94.3% | viability, T/C (second compound 0.00949 µM, first compound 0.0316 µM): 82.5% | viability, T/C (second compound 0.00949 µM, first compound 0.1 µM): 83.7% | viability, T/C (second compound 0.00949 µM, first compound 0.316 µM): 98.7% | viability, T/C (second compound 0.00949 µM, first compound 1 µM): 149% | viability, T/C (second compound 0.03 µM, first compound 0.00316 µM): 80.7% | viability, T/C (second compound 0.03 µM, first compound 0.01 µM): 75.4% | viability, T/C (second compound 0.03 µM, first compound 0.0316 µM): 97.9% | viability, T/C (second compound 0.03 µM, first compound 0.1 µM): 84.2% | viability, T/C (second compound 0.03 µM, first compound 0.316 µM): 111% | viability, T/C (second compound 0.03 µM, first compound 1 µM): 142% | viability, T/C (second compound 0.0949 µM, first compound 0.00316 µM): 94.6% | viability, T/C (second compound 0.0949 µM, first compound 0.01 µM): 82% | viability, T/C (second compound 0.0949 µM, first compound 0.0316 µM): 84.1% | viability, T/C (second compound 0.0949 µM, first compound 0.1 µM): 98.7% | viability, T/C (second compound 0.0949 µM, first compound 0.316 µM): 113% | viability, T/C (second compound 0.0949 µM, first compound 1 µM): 146% | viability, T/C (second compound 0.3 µM, first compound 0.00316 µM): 74.5% | viability, T/C (second compound 0.3 µM, first compound 0.01 µM): 89% | viability, T/C (second compound 0.3 µM, first compound 0.0316 µM): 86.8% | viability, T/C (second compound 0.3 µM, first compound 0.1 µM): 81.3% | viability, T/C (second compound 0.3 µM, first compound 0.316 µM): 115% | viability, T/C (second compound 0.3 µM, first compound 1 µM): 126% | viability, T/C (second compound 0.949 µM, first compound 0.00316 µM): 85.4% | viability, T/C (second compound 0.949 µM, first compound 0.01 µM): 64.5% | viability, T/C (second compound 0.949 µM, first compound 0.0316 µM): 77.2% | viability, T/C (second compound 0.949 µM, first compound 0.1 µM): 79.2% | viability, T/C (second compound 0.949 µM, first compound 0.316 µM): 112% | viability, T/C (second compound 0.949 µM, first compound 1 µM): 161% | viability, T/C (second compound 3 µM, first compound 0.00316 µM): 97.8% | viability, T/C (second compound 3 µM, first compound 0.01 µM): 85.2% | viability, T/C (second compound 3 µM, first compound 0.0316 µM): 97.9% | viability, T/C (second compound 3 µM, first compound 0.1 µM): 109% | viability, T/C (second compound 3 µM, first compound 0.316 µM): 158% | viability, T/C (second compound 3 µM, first compound 1 µM): 106%
